In patent publication US20120122860A1, “SOLID FORMS OF SULFONAMIDES AND AMINO ACIDS” (Plexxikon, Inc., priority 2009, published 2012):

Columns and labels:
Kit = Kit (Homo sapiens, UniProt P10721); test: Kinase activity assay, Kit
Fms = Fms (Homo sapiens, UniProt P07333); test: Kinase activity assay, Fms
Btk = Btk (Homo sapiens, UniProt Q06187); test: Kinase activity assay, Btk
B-Raf V600E = B-Raf V600E (Homo sapiens, UniProt P15056, V600E); test: Kinase activity assay, B-Raf V600E; type: biochemical; settings: read-out: activity toward kinase B-Raf V600E, IC50
Kdr = Kdr (Homo sapiens, UniProt P35968); test: Kinase activity assay, Kdr
TEC = target: T1, TEC (Homo sapiens, UniProt P42680); test: Kinase activity assay, TEC
T1 sequence (P42680 1-631): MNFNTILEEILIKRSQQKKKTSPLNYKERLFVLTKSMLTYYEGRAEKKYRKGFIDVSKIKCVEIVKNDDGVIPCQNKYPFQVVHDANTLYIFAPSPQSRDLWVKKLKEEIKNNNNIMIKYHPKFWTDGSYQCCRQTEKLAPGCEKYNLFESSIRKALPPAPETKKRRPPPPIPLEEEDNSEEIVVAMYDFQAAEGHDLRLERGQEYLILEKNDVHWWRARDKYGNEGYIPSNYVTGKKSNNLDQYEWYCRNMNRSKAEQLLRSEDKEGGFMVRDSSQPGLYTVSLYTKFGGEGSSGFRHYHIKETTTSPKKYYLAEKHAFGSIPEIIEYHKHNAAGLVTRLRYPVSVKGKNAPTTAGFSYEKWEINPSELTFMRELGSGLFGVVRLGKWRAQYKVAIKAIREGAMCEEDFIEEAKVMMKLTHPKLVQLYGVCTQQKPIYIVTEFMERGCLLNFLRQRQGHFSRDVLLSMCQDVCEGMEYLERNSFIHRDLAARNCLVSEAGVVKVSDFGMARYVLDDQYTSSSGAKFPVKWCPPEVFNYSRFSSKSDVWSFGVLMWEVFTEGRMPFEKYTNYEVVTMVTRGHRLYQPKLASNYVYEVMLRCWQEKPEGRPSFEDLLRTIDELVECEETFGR

Src = Src (Homo sapiens, UniProt P12931); test: Kinase activity assay, Src
A-Raf = target: T2, A-Raf (Homo sapiens, UniProt P10398); test: Kinase activity assay, A-Raf
T2 sequence (P10398 1-606): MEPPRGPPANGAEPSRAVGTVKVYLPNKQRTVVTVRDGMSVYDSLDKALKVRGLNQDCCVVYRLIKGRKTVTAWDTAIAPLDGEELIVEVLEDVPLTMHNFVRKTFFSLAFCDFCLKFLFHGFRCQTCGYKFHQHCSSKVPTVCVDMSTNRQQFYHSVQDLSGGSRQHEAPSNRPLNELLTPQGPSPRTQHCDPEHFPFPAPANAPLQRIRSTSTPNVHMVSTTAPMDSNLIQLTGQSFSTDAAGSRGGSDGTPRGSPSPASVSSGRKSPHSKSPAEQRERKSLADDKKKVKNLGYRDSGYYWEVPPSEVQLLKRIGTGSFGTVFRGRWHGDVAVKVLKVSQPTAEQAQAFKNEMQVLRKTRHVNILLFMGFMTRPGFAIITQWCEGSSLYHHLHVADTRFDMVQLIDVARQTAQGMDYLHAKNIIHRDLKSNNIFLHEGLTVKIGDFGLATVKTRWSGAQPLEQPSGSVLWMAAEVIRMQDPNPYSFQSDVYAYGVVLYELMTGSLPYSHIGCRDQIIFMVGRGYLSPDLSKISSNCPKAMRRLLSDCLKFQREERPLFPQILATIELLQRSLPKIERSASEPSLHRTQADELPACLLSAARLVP

MAP4K4 = MAP4K4 (Homo sapiens, UniProt O95819); test: Kinase activity assay, MAP4K4
C-Raf = C-Raf (Homo sapiens, UniProt P04049); test: Kinase activity assay, C-Raf
B-Raf = B-Raf (Homo sapiens, UniProt P15056); test: Kinase activity assay, B-Raf; type: biochemical; settings: read-out: activity toward kinase B-Raf, IC50

Measured: IC50

Chain of Fms (P07333 20-972): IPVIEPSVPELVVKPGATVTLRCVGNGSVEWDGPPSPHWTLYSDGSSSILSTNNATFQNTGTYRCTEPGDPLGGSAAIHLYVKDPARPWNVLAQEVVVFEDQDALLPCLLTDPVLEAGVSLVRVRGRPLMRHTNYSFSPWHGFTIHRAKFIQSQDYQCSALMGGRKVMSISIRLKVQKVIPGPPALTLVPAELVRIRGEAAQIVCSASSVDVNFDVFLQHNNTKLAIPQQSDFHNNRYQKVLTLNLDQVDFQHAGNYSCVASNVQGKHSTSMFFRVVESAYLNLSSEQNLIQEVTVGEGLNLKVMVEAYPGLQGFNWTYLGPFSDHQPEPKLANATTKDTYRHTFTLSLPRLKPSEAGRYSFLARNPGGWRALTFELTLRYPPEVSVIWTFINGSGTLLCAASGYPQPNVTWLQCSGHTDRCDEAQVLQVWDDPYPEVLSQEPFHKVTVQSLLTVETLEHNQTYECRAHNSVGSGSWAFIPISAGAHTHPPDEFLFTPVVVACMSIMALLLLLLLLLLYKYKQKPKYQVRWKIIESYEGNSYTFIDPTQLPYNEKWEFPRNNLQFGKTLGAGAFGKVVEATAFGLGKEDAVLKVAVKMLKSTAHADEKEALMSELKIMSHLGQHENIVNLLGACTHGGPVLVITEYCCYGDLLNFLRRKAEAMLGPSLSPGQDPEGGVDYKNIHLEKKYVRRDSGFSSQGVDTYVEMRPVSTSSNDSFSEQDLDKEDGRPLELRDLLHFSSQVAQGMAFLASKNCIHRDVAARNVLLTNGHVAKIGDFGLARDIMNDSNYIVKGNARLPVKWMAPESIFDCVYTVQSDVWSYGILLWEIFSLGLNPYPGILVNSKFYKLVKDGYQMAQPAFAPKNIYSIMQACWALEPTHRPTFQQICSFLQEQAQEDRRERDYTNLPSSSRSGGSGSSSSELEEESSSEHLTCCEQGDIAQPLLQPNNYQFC
Chain of Btk (Q06187 whole entry): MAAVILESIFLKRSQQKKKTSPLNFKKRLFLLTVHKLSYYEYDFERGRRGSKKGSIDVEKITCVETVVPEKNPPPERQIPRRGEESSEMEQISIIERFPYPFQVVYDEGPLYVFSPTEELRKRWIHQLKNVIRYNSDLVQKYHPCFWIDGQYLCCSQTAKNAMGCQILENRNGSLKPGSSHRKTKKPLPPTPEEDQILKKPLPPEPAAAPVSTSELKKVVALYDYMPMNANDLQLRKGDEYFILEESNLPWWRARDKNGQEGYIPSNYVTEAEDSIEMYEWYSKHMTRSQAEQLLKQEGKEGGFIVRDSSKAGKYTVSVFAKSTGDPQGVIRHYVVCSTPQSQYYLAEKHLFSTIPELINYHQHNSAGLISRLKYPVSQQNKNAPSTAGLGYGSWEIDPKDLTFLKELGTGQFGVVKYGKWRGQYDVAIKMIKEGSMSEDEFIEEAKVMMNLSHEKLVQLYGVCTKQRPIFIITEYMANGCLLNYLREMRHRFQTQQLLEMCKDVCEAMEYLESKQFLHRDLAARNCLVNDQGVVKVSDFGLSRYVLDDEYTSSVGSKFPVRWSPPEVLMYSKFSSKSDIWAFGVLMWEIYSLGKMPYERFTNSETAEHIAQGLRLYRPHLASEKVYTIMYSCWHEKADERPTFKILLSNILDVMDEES
Chain of Kdr (P35968 20-1356): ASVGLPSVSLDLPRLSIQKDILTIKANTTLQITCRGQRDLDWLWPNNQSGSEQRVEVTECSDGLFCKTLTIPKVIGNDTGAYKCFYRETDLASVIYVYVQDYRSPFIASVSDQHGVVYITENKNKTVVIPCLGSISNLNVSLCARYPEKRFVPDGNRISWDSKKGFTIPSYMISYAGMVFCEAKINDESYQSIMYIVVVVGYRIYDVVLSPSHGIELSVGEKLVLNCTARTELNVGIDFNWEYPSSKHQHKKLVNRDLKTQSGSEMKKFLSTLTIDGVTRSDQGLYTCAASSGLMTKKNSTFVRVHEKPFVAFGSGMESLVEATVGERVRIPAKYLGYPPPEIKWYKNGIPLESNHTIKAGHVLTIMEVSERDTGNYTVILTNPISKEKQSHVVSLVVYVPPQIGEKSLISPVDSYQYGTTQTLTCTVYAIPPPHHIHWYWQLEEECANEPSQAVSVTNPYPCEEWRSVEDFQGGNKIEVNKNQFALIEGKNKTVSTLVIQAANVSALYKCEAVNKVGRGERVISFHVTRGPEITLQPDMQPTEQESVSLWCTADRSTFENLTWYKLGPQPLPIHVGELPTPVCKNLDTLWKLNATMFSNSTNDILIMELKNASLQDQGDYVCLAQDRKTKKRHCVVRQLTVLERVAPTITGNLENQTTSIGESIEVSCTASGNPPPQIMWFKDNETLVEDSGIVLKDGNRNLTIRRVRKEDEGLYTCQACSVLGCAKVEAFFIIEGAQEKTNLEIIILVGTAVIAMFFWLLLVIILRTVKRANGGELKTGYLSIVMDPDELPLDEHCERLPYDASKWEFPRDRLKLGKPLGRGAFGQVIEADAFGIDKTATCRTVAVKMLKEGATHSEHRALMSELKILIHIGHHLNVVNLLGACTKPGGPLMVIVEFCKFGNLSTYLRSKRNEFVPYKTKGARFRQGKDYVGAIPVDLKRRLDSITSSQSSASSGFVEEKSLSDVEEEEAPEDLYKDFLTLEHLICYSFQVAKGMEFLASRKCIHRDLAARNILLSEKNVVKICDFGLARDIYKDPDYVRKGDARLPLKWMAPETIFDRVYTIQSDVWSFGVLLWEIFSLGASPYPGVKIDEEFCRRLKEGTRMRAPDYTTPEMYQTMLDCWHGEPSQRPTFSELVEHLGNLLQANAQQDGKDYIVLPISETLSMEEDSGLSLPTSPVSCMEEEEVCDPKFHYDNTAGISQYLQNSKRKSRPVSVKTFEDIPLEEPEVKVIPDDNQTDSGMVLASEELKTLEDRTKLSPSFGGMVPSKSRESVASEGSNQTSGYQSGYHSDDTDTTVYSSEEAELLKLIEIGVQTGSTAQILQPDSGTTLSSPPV
Chain of Src (P12931 whole entry): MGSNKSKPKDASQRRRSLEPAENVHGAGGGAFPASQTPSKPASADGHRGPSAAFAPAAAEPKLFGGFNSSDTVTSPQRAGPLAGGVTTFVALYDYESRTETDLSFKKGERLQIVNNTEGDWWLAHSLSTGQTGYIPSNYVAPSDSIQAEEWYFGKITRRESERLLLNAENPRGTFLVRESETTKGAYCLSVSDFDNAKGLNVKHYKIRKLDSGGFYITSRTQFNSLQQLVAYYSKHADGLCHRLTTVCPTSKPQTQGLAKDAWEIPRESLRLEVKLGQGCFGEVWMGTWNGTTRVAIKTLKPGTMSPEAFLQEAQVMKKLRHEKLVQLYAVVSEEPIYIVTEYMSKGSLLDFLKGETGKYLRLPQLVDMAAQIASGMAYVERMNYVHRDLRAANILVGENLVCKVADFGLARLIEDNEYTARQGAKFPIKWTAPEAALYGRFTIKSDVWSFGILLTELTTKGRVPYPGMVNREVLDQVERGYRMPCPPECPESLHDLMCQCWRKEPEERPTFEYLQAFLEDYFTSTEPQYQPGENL
Chain of B-Raf V600E (P15056 whole entry V600E): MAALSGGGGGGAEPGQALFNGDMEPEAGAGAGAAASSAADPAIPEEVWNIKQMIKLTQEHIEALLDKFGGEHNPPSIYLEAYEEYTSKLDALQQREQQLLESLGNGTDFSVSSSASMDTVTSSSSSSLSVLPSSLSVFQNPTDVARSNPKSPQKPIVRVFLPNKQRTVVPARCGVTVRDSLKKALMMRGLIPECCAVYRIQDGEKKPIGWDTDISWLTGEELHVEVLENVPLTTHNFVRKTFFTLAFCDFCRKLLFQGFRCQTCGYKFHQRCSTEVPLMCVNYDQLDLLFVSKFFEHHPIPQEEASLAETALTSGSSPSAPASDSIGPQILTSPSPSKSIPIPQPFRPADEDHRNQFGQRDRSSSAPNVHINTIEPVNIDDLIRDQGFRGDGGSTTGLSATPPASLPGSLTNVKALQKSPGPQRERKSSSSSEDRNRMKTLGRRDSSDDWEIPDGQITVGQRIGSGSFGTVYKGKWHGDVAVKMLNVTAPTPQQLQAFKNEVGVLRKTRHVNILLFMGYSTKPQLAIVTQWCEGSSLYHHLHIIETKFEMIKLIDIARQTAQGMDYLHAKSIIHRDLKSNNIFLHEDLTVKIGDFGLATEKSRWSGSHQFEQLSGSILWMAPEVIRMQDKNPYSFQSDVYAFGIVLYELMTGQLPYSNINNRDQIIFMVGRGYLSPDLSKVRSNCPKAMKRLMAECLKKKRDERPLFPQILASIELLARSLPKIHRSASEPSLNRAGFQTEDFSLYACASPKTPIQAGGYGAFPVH
Chain of C-Raf (P04049 whole entry): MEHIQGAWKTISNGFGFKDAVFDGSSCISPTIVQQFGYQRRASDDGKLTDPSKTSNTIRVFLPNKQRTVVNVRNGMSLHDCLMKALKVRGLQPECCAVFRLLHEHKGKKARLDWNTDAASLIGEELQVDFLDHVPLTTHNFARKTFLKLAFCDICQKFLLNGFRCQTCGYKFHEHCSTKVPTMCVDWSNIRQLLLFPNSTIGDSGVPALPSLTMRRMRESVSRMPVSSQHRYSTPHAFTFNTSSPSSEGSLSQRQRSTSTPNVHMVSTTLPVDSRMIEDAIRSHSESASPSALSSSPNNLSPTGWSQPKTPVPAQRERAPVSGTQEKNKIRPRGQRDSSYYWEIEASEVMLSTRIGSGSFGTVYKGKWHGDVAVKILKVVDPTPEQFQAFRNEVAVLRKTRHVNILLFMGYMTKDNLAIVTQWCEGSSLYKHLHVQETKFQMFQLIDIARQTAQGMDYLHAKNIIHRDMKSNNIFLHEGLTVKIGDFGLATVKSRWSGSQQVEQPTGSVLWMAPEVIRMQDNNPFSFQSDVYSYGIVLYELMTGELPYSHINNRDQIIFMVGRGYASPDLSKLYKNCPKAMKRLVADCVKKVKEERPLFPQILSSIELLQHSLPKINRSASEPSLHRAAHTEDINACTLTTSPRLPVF
Chain of B-Raf (P15056 whole entry): as the sequence (P15056 whole entry V600E) above, with E600V counted along it

CCCCS(=O)(=O)Nc1cccc(C(=O)c2c[nH]c3ncc(-c4cnn(C)c4)cc23)c1 [P-2455, Butane-1-sulfonic acid {3-[5-(1-methyl-1H-pyrazol-4-yl)-1H-pyrrolo[2,3-b]pyridine-3-carbonyl]-phenyl}-amide]
≤ 10 µM: Kit | Fms | Btk | B-Raf V600E | Kdr | TEC

Cn1cc(-c2cnc3[nH]cc(C(=O)c4cccc(NS(=O)(=O)c5ccc(F)cc5)c4)c3c2)cn1 [P-2130, 4-Fluoro-N-{3-[5-(1-methyl-1H-pyrazol-4-yl)-1H-pyrrolo[2,3-b]pyridine-3-carbonyl]-phenyl}-benzenesulfonamide]
≤ 10 µM: Kit | Fms | Btk | B-Raf V600E | Kdr | TEC

Cn1cc(-c2cnc3[nH]cc(C(=O)c4cccc(NS(=O)(=O)c5ccc(Cl)cc5)c4)c3c2)cn1 [P-2129, 4-Chloro-N-{3-[5-(1-methyl-1H-pyrazol-4-yl)-1H-pyrrolo[2,3-b]pyridine-3-carbonyl]-phenyl}-benzenesulfonamide]
≤ 10 µM: Kit | Fms | Btk | B-Raf V600E | Kdr | TEC

CCCS(=O)(=O)Nc1ccc(F)c(C(=O)c2c[nH]c3ncc(-c4ccc(OCCCN5CCCC5)nc4)cc23)c1F [P-2235, Propane-1-sulfonic acid (2,4-difluoro-3-{5-[6-(3-pyrrolidin-1-yl-propoxy)-pyridin-3-yl]-1H-pyrrolo[2,3-b]pyridine-3-carbonyl}-phenyl)-amide]
not listed: TEC
≤ 10 µM: all other assays above

CCCS(=O)(=O)Nc1ccc(F)c(C(=O)c2c[nH]c3ncc(-c4ccc(NS(C)(=O)=O)cc4)cc23)c1F [P-2165, Propane-1-sulfonic acid {2,4-difluoro-3-[5-(4-methanesulfonylamino-phenyl)-1H-pyrrolo[2,3-b]pyridine-3-carbonyl]-phenyl}-amide]
not listed: TEC | MAP4K4
≤ 10 µM: all other assays above

N#Cc1cnc2[nH]cc(C(=O)c3cccc(NS(=O)(=O)CC(F)(F)F)c3F)c2c1 [P-2414, 2,2,2-Trifluoro-ethanesulfonic acid [3-(5-cyano-1H-pyrrolo[2,3-b]pyridine-3-carbonyl)-2-fluoro-phenyl]-amide]
≤ 10 µM: Src | Btk | B-Raf V600E | TEC | C-Raf | B-Raf

CCCS(=O)(=O)Nc1ccc(F)c(C(=O)c2c[nH]c3ncc(-c4ccc(C#CCN(CC)CC)nc4)cc23)c1F [P-2222, Propane-1-sulfonic acid (3-{5-[6-(3-diethylamino-prop-1-ynyl)-pyridin-3-yl]-1H-pyrrolo[2,3-b]pyridine-3-carbonyl}-2,4-difluoro-phenyl)-amide]
not listed: TEC | A-Raf
≤ 10 µM: all other assays above

Cn1cc(-c2cnc3[nH]cc(C(=O)c4cccc(NS(=O)(=O)c5cccc(Cl)c5)c4)c3c2)cn1 [P-2134, 3-Chloro-N-{3-[5-(1-methyl-1H-pyrazol-4-yl)-1H-pyrrolo[2,3-b]pyridine-3-carbonyl]-phenyl}-benzenesulfonamide]
≤ 10 µM: Kit | Fms | Btk | B-Raf V600E | Kdr | TEC

N#Cc1cnc2[nH]cc(C(=O)c3cccc(NS(=O)(=O)N4CCCC4)c3F)c2c1 [P-2420, Pyrrolidine-1-sulfonic acid [3-(5-cyano-1H-pyrrolo[2,3-b]pyridine-3-carbonyl)-2-fluoro-phenyl]-amide]
≤ 10 µM: A-Raf | Btk | B-Raf V600E | C-Raf | B-Raf

N#Cc1cnc2[nH]cc(C(=O)c3cccc(NS(=O)(=O)c4cccc(F)c4)c3F)c2c1 [P-2053, N-[3-(5-Cyano-1H-pyrrolo[2,3-b]pyridine-3-carbonyl)-2-fluoro-phenyl]-3-fluoro-benzenesulfonamide]
≤ 10 µM: Src | Btk | B-Raf V600E | TEC | C-Raf | B-Raf

N#Cc1cnc2[nH]cc(C(=O)c3cccc(NS(=O)(=O)c4cc(F)ccc4F)c3F)c2c1 [P-2052, N-[3-(5-Cyano-1H-pyrrolo[2,3-b]pyridine-3-carbonyl)-2-fluoro-phenyl]-2,5-difluoro-benzenesulfonamide]
not listed: Fms | A-Raf | MAP4K4
≤ 10 µM: all other assays above

COc1ncc(-c2cnc3[nH]cc(C(=O)c4c(F)ccc(NS(=O)(=O)N5CCCC5)c4F)c3c2)cn1 [P-2400]
not listed: Fms | A-Raf | MAP4K4
≤ 10 µM: all other assays above

O=C(c1cccc(NS(=O)(=O)N2CCCCC2)c1)c1c[nH]c2ncc(Cl)cc12 [P-2471, Piperidine-1-sulfonic acid [3-(5-chloro-1H-pyrrolo[2,3-b]pyridine-3-carbonyl)-phenyl]-amide]
≤ 10 µM: Kit | Fms | Btk | Kdr | TEC

N#Cc1cnc2[nH]cc(C(=O)c3cccc(NS(=O)(=O)c4c(F)cccc4F)c3F)c2c1 [P-2054, N-[3-(5-Cyano-1H-pyrrolo[2,3-b]pyridine-3-carbonyl)-2-fluoro-phenyl]-2,6-difluoro-benzenesulfonamide]
not listed: Fms | A-Raf | MAP4K4
≤ 10 µM: all other assays above

N#Cc1cnc2[nH]cc(C(=O)c3cccc(NS(=O)(=O)c4ccccn4)c3F)c2c1 [P-2087, Pyridine-2-sulfonic acid [3-(5-cyano-1H-pyrrolo[2,3-b]pyridine-3-carbonyl)-2-fluoro-phenyl]-amide]
≤ 10 µM: Src | Btk | B-Raf V600E | TEC | C-Raf | B-Raf

N#Cc1cnc2[nH]cc(C(=O)c3cccc(NS(=O)(=O)c4ccccc4F)c3F)c2c1 [P-2051, N-[3-(5-Cyano-1H-pyrrolo[2,3-b]pyridine-3-carbonyl)-2-fluoro-phenyl]-2-fluoro-benzenesulfonamide]
not listed: Fms | A-Raf | MAP4K4
≤ 10 µM: all other assays above

O=C(c1cc(NS(=O)(=O)N2CCCCC2)ccc1F)c1c[nH]c2ncccc12 [P-2440, Piperidine-1-sulfonic acid [4-fluoro-3-(1H-pyrrolo[2,3-b]pyridine-3-carbonyl)-phenyl]-amide]
≤ 10 µM: Fms | Btk | TEC
